The values below come from patent US20230250169A1, “AXL Inhibitors for Antiviral Therapy” (BERGENBIO ASA, priority 2020, published 2023).

The test system of data set [1] is Mouse Hepatitis Virus (MHV) strain A59. In words: Mouse hepatitis virus (MHV A59) infection of murine bone marrow-derived macrophages, virus load by qRT-PCR. It counts as cell-based. Particulars: for MHV virus load in WT mBMDM: WT cells, pretreated and kept on cells. On the technique in general: Quantitative PCR measures a nucleic acid by following its amplification.

In data set [2] the test system is VSV/SARS-CoV-2 spike pseudovirions. It counts as cell-based, Green African Monkey.
In data set [3] the test system is SARS-CoV-2. It counts as cell-based.
In data set [4] the test system is SARS-CoV-2. In words: SARS-CoV-2 binding on Vero E6 cells (qRT-PCR of bound viral RNA). It counts as cell-based, Green African Monkey. As to conditions: MOI=5, 15° C., 60 m. How it is done: FIG. 9 • Evaluation of SARS-CoV-2 binding on Vero E6 cells. Cells were incubated with virus (MOI=5) and treatments noted at 15° C. for 60 m. Subsequently, some cells were treated with trypsin to remove bound virus. All cells were washed extensively to remove unbound virus and cells were extracted for RNA. Viral load was determined and normalized for the host gene GAPDH. This is one of 3 different experiments yielding similar results.
In an additional set of studies with Vero E6 cells, it was evaluated whether bemcentinib or PS liposomes blocked VT SARS-CoV-2 binding. Using an MOI of 5, SARS-CoV-2 was incubated at 15° C. for 60 m with Vero E6 cells in the presence of bemcentinib or PS liposomes. Phosphatidylcholine (PC) liposomes were incubated with the cells as a control for PS-mediated viral competition; trypsin was added after virus binding to some cells as a negative control. Cells were placed in Trizol and virus binding was assessed by qRT-PCR detection of viral RNA genomes as compared to the level of a housekeeping gen mRNA, GAPDH. […] Similar studies in Vero E6 cells and other more relevant lung cells will be performed to assess virus internalization following virus binding.

Data set [5] relates to SARS-CoV-2. It counts as cell-based. As to conditions: A549-hACE2 and Vero E6 cells, 1 uM, 24 h, preliminary.
Data set [6] concerns SARS-CoV-2. The data set is classed as cell-based. As to conditions: for sensitivity of SARS-CoV-2 infection to inhibitor: three of the lung tumor lines from John Minna, representative data.
Data set [7] has as its system SARS-CoV-2. It counts as cell-based. As to conditions: MOI=0.1, 24 h, inhibitor added prior to infection.
For data set [8], the system named is SARS-CoV-2. In words: BGBC020 and ACCORD-2 studies taken together. It counts as in vivo, human. Particulars: across both BGBC020 and ACCORD-2 studies; SoC 10.
For data set [9], the system named is SARS-CoV-2. In words: SARS-CoV-2 salivary viral load (quantitative PCR) in BGBC020 patients. It counts as in vivo.
Data set [10] relates to SARS-CoV-2. In words: Clinical case report: COVID-19 in a lung cancer patient on bemcentinib+erlotinib. The data set is classed as in vivo.
A further data set relates to Ebola virus. As to conditions: one of only two of sixty compounds; cited from earlier work.
Data set [11] concerns SARS-CoV-2. As to conditions: Vero E6 and CaIU3, Dittmar et al; cited from earlier work.
The subject of the next data set is MHV. In words: MHV-infected C57BL/6 mice treated by gavage.
The subject of data set [12] is SARS-CoV-2. In words: Phase 2 clinical trial ACCORD-2 (UK), hospitalised COVID-19 patients.
For data set [13], the system named is SARS-CoV-2. In words: Phase 2 clinical trial BGBC020 (India, South Africa), hospitalised COVID-19 patients, bemcentinib plus SoC versus SoC.
Data set [14] has as its system VSV/SARS-CoV-2 spike pseudovirion. It counts as cell-based.
Data set [15] deals with SARS-CoV-2. The data set is classed as cell-based, Green African Monkey.
Where [16] appears, read: one high-risk patient on bemcentinib+erlotinib.

Entries after “also recorded” stand apart in the source; their conditions may differ. Read-outs that look alike come from different tables or passages of the source.

With `Nc1nc(Nc2ccc3c(c2)CC[C@@H](N2CCCC2)CC3)nn1-c1cc2c(nn1)-c1ccccc1CCC2` [bemcentinib, 1-(6,7-dihydro-5H-benzo[6,7]cyclohepta[1,2-c]pyridazin-3-yl)-N^3-((7-(S)-pyrrolidin-1-yl)-6,7,8,9-tetrahydro-5H-benzo[7]annulene-2-yl)-1H-1,2,4-triazole-3,5-diamine], the “MHV infection of mBMDM (MHV spike gene, qRT-PCR)” value in data set [1] (1 μM, 24 h, p=0.034 in one-way ANOVA) is on record as “significantly reducing infection”; in data set [1] (increasing concentrations, MOI 0.01, 24 h), “inhibitory trend; also recorded: did inhibit MHV infection”; in data set [1] (increasing concentrations, MOI 0.01, 24 h, listed as Bemcentinib), “inhibits MHV infection”. The “reduction of MHV virus load in ISG15 (KO) and USP18C61A/C61A mBMDM” value in data set [1] (1 μM, 24 h, trend to lower virus load) was “not statistically significant; also recorded: did not reach statistical significance”. Moreover, the “inhibitory effect on virus infection” value in [1] (BMDM from ISG15-null and USP18C61A/C61A mice, compared with wild type) was “more variable and in general reduced”. In data set [1] (MHV-infected BMDM cultures), the viral-induced syncytia formation result was “reduced”. Also, the “MHV virus load in WT mBMDM” value in [1] (1 μM, 24 h) is “significantly reduced MHV infection”; in data set [1] (1 μM, 24 h, listed as Bemcentinib), “reduces virus load”. In addition, the “coronavirus load in cells” value in data set [1] (primary murine BMDM, MHV, 1 μM, 20 h following infection, preliminary) was “reduces coronavirus load”. The “SARS-CoV-2 spike dependent pseudovirion infection of Vero E6 cells” value in [2] is “highly effective; also recorded: inhibited pseudovirus infection”. In addition, the “SARS-CoV-2 infection of CalU3 cells (viral load)” value in the data set on SARS-CoV-2 [3] is recorded as “did not inhibit”. The “SARS-CoV-2 binding to Vero E6 cells” value in the data set with SARS-CoV-2 [4] was “no effect”. The “SARS-CoV-2 viral transcripts (RNAseq)” value in the data set on SARS-CoV-2 [5] is listed as “dramatically reduced”; with SARS-CoV-2 [5] (listed as Bemcentinib), “significantly reduced”. The “Sensitive to Bemcentinib” value in the data set with SARS-CoV-2 [6] (lung line 820) is reported as “Yes”; in the data set with SARS-CoV-2 [6] (lung line CalU3), “No”; in the data set with SARS-CoV-2 [6] (lung line H322), “Yes”; in the data set on SARS-CoV-2 [6] (lung line H1650) it was “Yes”; in the data set with SARS-CoV-2 [6] (lung line H1819), “No”; in the data set with SARS-CoV-2 [6] (lung line H3255) it was “No”. The “Sensitive to Bemcentinib” value with SARS-CoV-2 [6] (lung line HCC1944) is listed as “Mixed findings”; with SARS-CoV-2 [6] (lung line HCC2302), “Yes”; in the data set with SARS-CoV-2 [6] (lung line HCC4207) it was “Mixed findings”; with SARS-CoV-2 [6] (lung line HCC4256), “No”; in the data set on SARS-CoV-2 [6] (lung line HSAEC13), “Mixed findings”. Further, the “sensitivity of SARS-CoV-2 infection to inhibitor” value in the data set with SARS-CoV-2 [6] was “sensitive”. The “SARS-CoV-2 virus load in Huh7 cells” value with SARS-CoV-2 [7] was “inhibited virus infection in a dose dependent manner”. The compound further yielded a COVID-19 related deaths in the data set on SARS-CoV-2 [8] of 3. The “patients with salivary viral load below LLOQ (500 copies/mL)” value in the data set on SARS-CoV-2 [9] (absence of another antiviral, day 8 (8 of 12), SoC 37.5%) is “approximately 66%”; in the data set on SARS-CoV-2 [9] (absence of another antiviral, day 11 (3 of 3), SoC 60%), 100%; in the data set on SARS-CoV-2 [9] (presence of another antiviral (remdesivir or favipiravir), day 8 (9 of 11), SoC 54%), “approximately 82%”; in the data set with SARS-CoV-2 [9] (presence of another antiviral (remdesivir or favipiravir), day 11 (9 of 9), SoC 56%) it was 100%. Besides, in the data set on SARS-CoV-2 [9] (day 11, all patients, SoC 57%), the “rate of viral clearance” value is given as 100%. The same compound had a COVID-19 disease course in the data set with SARS-CoV-2 [10] (setting [16]) of 7 days. In the data set on SARS-CoV-2 [10] (setting [16]), the “course of COVID-19” value is listed as “very mild”. Further, the “transmission to co-habiting partner” value in the data set on SARS-CoV-2 [10] (one patient on bemcentinib+erlotinib) is given as “lack of transmission”. The “effect against Ebola infection in animal models” value in the data set with Ebola virus is listed as “some protective/therapeutic effect”. The “SARS-CoV-2 infection in both cell types” value with SARS-CoV-2 [11] was “reported to inhibit”. Besides, the “virus load in liver” value in the data set with MHV (C57BL/6 mice, 50,000 iu MHV, versus pooled untreated and vehicle only groups, Student's t test) was “significantly reduced virus load”. For the same compound, the “type I interferon responses (IFN related gene expression)” value in the data set on MHV (MHV-infected C57BL/6 mice, day 3, spleen and liver RNA) was “enhancing type I interferon responses”. In addition, the “Laboratory TRAE (haem or chemistry)” value in the data set on SARS-CoV-2 [12] (ACCORD-2) was “no TRAE haem or chemistry”. Moreover, in the data set on SARS-CoV-2 [12] (ACCORD-2), the QTcF prolongation entry is reported as “No reported QTcF prolongation”. For the same compound, the Mortality with SARS-CoV-2 [12] (by D29, of 30 patients, SoC 6 of 30) is on record as 1 patients; in the data set on SARS-CoV-2 [13] (by D29, of 58 patients, SoC 4 of 57), 2 patients. Besides, the “QTcF prolongation >501 msec” value in the data set on SARS-CoV-2 [13] (BGBC020) is “No QTcF prolongation”. Also, the SUSAR result in the data set on SARS-CoV-2 [13] (BGBC020) is “No SUSAR”. Besides, in the data set on SARS-CoV-2 [13] (BGBC020 interim results, secondary endpoint), the “Time to NEWS2 score ≤2, Hazard ratio (95% CI)” value is on record as 1.10 (0.70, 1.73). Moreover, the “worsening by 1, 2 or 3 points on WHO scale” value in the data set with SARS-CoV-2 [13] (days 2, 8, 15 and 29, versus standard of care alone) is on record as “lower proportion of individual patients experiencing worsening”. Besides, the SAE in the data set with SARS-CoV-2 [13] (of 58 patients, SoC 4) worked out at 5 patients. Also, the NEWS2 normalisation result in the data set on SARS-CoV-2 [13] (versus SoC, interim) is listed as “favours bemcentinib arm within week 1”. Besides, the “time to WHO OCS improvement or discharge (primary endpoint)” value in the data set with SARS-CoV-2 [13] (versus SoC, particularly with higher baseline CRP, interim) was “Favours the bemcentinib arm”.
With `CN(C)C(=O)COC(=O)Cc1ccc(OC(=O)c2ccc(NC(=N)N)cc2)cc1` [camostat], in data set [14], the “hACE2-dependent pseudovirion infection (luminescence)” value is recorded as “blocked infection, but to a lesser extent”.
Regarding `CC(C)C[C@H](NC(=O)[C@H]1O[C@@H]1C(=O)O)C(=O)NCCCCN=C(N)N` [E64], the “hACE2-dependent pseudovirion infection (luminescence)” value in data set [14] was “effectively blocked infection”. Besides, in the data set with SARS-CoV-2 [15], the “WT SARS-CoV-2 infection of Vero E6 cells (viral load)” value is recorded as “blocked infection”. The “sensitivity of SARS-CoV-2 infection to inhibitor” value with SARS-CoV-2 [6] is on record as “sensitive”.
